Measured values: publication PMC8975272, “Novel glucagon-like peptide-1 analogue exhibits potency-driven G-protein biased agonism with promising effects on diabetes and diabetic dry eye syndrome” (Bioengineered, 2022)
Each block holds one compound with its values, some of them ahead of it.

Key:
hGLP-1 R = biological target: T1, hGLP-1 R (Homo sapiens, UniProt P43220); assay: GLP-1R recycling assay (exendin-4-TMR uptake); assay type: cell-based; details: 100 nM agonist 1 hour, washout, exendin-4-TMR 1 or 3 hours; compared to Semaglutide
T1 construct: expressed in transfected cells; host or cells: INS-1 832/3 (abstract: 832/13) rat insulinoma cells
Procedure: INS-1 hGLP-1 R cells were seeded the day before the assay in 96-well imaging plates. Cells were washed twice with PBS, then stimulated with 100 nM of respective agonist in complete media, with an equal number of wells kept as vehicles. Following stimulation of the cells for 1 hour, they were washed twice with PBS and labeled with exendin-4-TMR13 for either 1 hour or 3 hours, washed again with PBS, and imaged via high content microscopy.

mouse pancreatic islets = assay: Static acute insulin secretion, mouse islets; assay type: cell-based
Procedure: Mice were euthanized by cervical dislocation and pancreatic islets isolated by collagenase digestion as previously described and cultured in RPMI 1640 medium, 11 mM glucose, supplemented with 10% (v/v) FBS plus penicillin (100 units/mL), and streptomycin (0.1 mg/mL) at 37°C in an atmosphere of humidified air (95%) and CO2 (5%).
Mouse islets (10/well) were incubated in triplicate for each condition and treatment. […] The secretion medium was then collected to measure the insulin and proinsulin concentrations using an insulin HTRF kit (Cisbio Bioassays). INS-1 832/3 cells were treated with the indicated concentrations of SM102 or Semaglutide for 16 h in complete RPMI1640 medium at 11 mM glucose. A sample of supernatant was collected and analyzed for insulin content by HTRF.

INS-1 832/3 cells = assay: Insulin release after overnight incubation, INS-1 832/3 cells; assay type: cell-based; details: 16 h (overnight), range of concentrations, 11 mM glucose, HTRF
Procedure: Mouse islets (10/well) were incubated in triplicate for each condition and treatment. Islets were preincubated for 1 hour in 3 mM glucose KRH buffer prior to secretion assay (30 min) in 3 mM or 11 mM glucose with vehicle or 100 nM SM102 or Semaglutide. The secretion medium was then collected to measure the insulin and proinsulin concentrations using an insulin HTRF kit (Cisbio Bioassays). INS-1 832/3 cells were treated with the indicated concentrations of SM102 or Semaglutide for 16 h in complete RPMI1640 medium at 11 mM glucose. A sample of supernatant was collected and analyzed for insulin content by HTRF.

[1] = Pharmacokinetics in CD-1 mice; assay type: in vivo, mouse
db/db mice = assay: Chronic administration study in db/db mice; assay type: in vivo, mouse
Procedure: The diabetic db/db mice (half male and half female, 8–12 weeks, body weight- 40-50 g) were brought from Cavens Company Ltd. (Changzhou) and housed in individual ventilated cages with free access to food and water and maintained on a 12-hour light/dark cycle. Animals were acclimatized for 3 days. On day 0, each animal was weighed using a digital weighing balance. Blood was collected by retro-orbital plexus puncture. Blood glucose level was measured using a hand-held blood glucose meter (Johnson & Johnson) and %HbA1c was measured using auto fluorescence immunoanalyzer.
Animals were divided into treatment groups (n = 8 per group; 4 male, 4 female) with matched baseline %HbA1c levels (mean 7.3%). Vehicle, SM102 (1, 3 and 9 nmol/kg), Semaglutide (15 nmol/kg) were subcutaneously injected into the neck region of the animals on every other day for 4 weeks.
Body weight and food intake were monitored serially. On day 29 of the study, 24 h following the last dose, blood was collected for measurement of %HbA1c, triglycerides, insulin, C-peptide and glucagon. The function of β-cell was assessed via calculating the […] from blood concentrations of glucose and insulin.

diabetic DES mice = assay: Chronic administration study in diabetic DES mice; assay type: in vivo, mouse; details: for increase in number of conjunctival goblet cells vs control mice: PAS staining
Procedure: DES in db/db mice was induced by twice daily administration of 5 μL of 0.2% benzalkonium chloride (Sigma-Aldrich) for 7 days. All diabetic DES mice were divided into vehicle group, SM102 treatment groups (1, 3 and 9 nmol/kg), Semaglutide treatment group (15 nmol/kg), and dulaglutide (1.5 nmol/kg) (n = 8 per group; 4 male, 4 female). The drugs were injected subcutaneously into the neck region of the animals on every other day for 4 weeks.
The mouse’s lower eyelid was gently pulled downward, and a line with a 1 mm length of the phenol red cotton thread was placed on the upper part of the palpebral conjunctiva for 15 seconds near the inner part about one-third of the distance from the outer corner of the eyelid. The length of the colored part of the phenol red thread was recorded as the tear secretion. 1 μL of 0.1% liquid fluorescein sodium was instilled into the conjunctival sac followed by three blinks, and tear breakup time (BUT) was recorded in seconds.
[…] The levels of interleukin-6 (IL-6), interleukin-1β (IL-1β), tumor necrosis factor-α (TNF-α), transforming growth factor β1 (TGF-β1) and malondialdehyde (MDA) as well as superoxide dismutase (SOD) activity in the supernatant were measured using appropriate ELISA kits brought from R&D company (USA). The expression levels of p38/p-p38, JNK/pJNK and ERK/p-ERK were analyzed by Western blot methods as previously reported.
Hematoxylin and eosin (H&E) staining were performed as described below: Corneas were fixed in 4% formalin. After dehydration, the specimens were embedded in paraffin and serial sections of 6 μm thickness were cut and stained with a hematoxylin-eosin reagent. Periodic Acid–Schiff (PAS) staining were performed as described below: Conjunctiva was fixed in 4% formalin. After dehydration, the specimens were embedded in paraffin and serial sections of 6 μm thickness were cut and stained with 0.5% PAS staining. The number of positively stained cup-shaped cells in the stained conjunctival sections was counted using image-Pro Plus6.0 (MediaCybernetics, USA).

GLP-1R [2] = biological target: T2, GLP-1R (Homo sapiens, UniProt P43220); assay: cAMP accumulation (HTRF); assay type: cell-based; design: expressed in transfected cells
Procedure: (§1) HEK293 cells stably expressing human GLP-1R (hGLP-1 R) (generated in-house using HEK293 cell line purchased from ATCC, Cat# CRL-1573) were maintained in Dulbecco’s Modified Eagle Medium (DMEM, Gibco, 11,054,020) with 10% fetal bovine serum (FBS, Gibco, 10,099,133 C), 1% penicillin/streptomycin (Gibco, 10,378,016) and 1 mg/mL G418 (Gibco, 10,131,035). Wild-type INS-1 832/3 cells, or INS-1 832/3 cells lacking endogenous GLP-1 R (generated in-house using INS-1 832/3 cell line purchased from NTCC, Cat# CVCL_ZL55) were maintained in RPMI-1640 (Gibco, 22,400,071) with 1 mM sodium pyruvate (Gibco, 11,360,070), 50 μM β-mercaptoethanol (Gibco, 21,985,023), 10% FBS, and 1% penicillin/streptomycin. PathHunter CHO-K1-βarr2-EAGLP1R cells (DiscoverX) were maintained in F12 medium (Gibco, 11,320,033) with 10% FBS, 1% penicillin/streptomycin, 1 mg/mL G418 and 250 μg/mL hygromycin (Gibco, 10,687,010).
HEK293 stably expressing hGLP-1 R cells were stimulated with agonist for 30 min at 37°C in serum-free medium (Gibco, 12,753,018). cAMP was determined at the end of the incubation period by homogenous time resolved fluorescence (HTRF; cAMP Dynamic 2 kit, Cisbio) using a Molecular Devices iD5 plate reader.

GLP-1R [3] = biological target: T2, GLP-1R; assay: GLP-1R endocytosis, high content imaging; assay type: cell-based; design: expressed in transfected cells; details: no clear difference in kinetics between the two ligands
GLP-1R [4] = biological target: T2, GLP-1R; assay: GLP-1R binding affinity; design: expressed in transfected cells; details: compared to Semaglutide
GLP-1R [5] = biological target: T2, GLP-1R; assay: PathHunter β-arrestin-2 recruitment; assay type: cell-based; design: host or cells: CHO-K1 (PathHunter); details: SM102 vs Semaglutide; 30 min at 37°C, luminescence
Procedure: as §1
PathHunter CHO-K1-βarr2-EA-GLP-1 R cells were stimulated with agonist for 30 min at 37°C in Ham’s F12 medium (Gibco, 11,765,054) without FBS. At the end of the incubation period cells were lysed by addition of PathHunter detection reagents and luminescent signal was subsequently recorded from each well.

[6] = all 3 doses of SM102, Western blot, p < 0.05
[7] = corneal homogenates, 4 weeks, ELISA

T2 sequence (P43220 24-463): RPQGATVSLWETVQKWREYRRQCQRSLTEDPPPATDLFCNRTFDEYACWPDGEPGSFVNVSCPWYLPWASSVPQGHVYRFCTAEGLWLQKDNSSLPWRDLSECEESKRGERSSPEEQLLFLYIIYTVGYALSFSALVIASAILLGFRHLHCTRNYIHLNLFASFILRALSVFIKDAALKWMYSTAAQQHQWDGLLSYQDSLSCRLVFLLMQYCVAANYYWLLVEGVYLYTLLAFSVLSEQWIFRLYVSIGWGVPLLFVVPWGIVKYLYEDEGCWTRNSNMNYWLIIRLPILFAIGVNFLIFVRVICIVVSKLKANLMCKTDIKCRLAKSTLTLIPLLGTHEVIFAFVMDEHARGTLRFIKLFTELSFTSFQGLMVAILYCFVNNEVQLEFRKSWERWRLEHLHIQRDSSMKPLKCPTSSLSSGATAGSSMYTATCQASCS
T1 sequence (P43220 24-463): as above

GLP-1 R recycling (hGLP-1 R): modestly reduced recycling | half-life ([1]; mouse, plasma, sc, single subcutaneous injection, 1 mg/kg, male CD-1 mice): ~47.6 h | cAMP signaling potency (GLP-1R [2]; compared to Semaglutide, agonist 30 min at 37°C, serum-free medium, HTRF, n = 5): signaling potency was increased | GLP-1 R endocytosis (GLP-1R [3]): rapid GLP-1 R endocytosis | GLP-1 R binding affinity (GLP-1R [4]): moderate increases
SMILES: CC[C@H](C)[C@H](NC(=O)[C@H](Cc1ccccc1)NC(=O)[C@H](CCC(=O)O)NC(=O)[C@H](CCCCNC(=O)COCCOCCNC(=O)C(C)(C)NC(=O)CC[C@H](NC(=O)CCCCCCCCCCCCCCCCC(=O)O)C(=O)O)NC(=O)[C@H](C)NC(=O)[C@H](C)NC(=O)[C@H](CCC(N)=O)NC(=O)CNC(=O)[C@H](CCC(=O)O)NC(=O)[C@H](CC(C)C)NC(=O)[C@H](Cc1ccc(O)cc1)NC(=O)[C@H](CO)NC(=O)[C@H](CO)NC(=O)[C@@H](NC(=O)[C@H](CC(=O)O)NC(=O)[C@H](CO)NC(=O)[C@@H](NC(=O)[C@H](Cc1ccccc1)NC(=O)[C@@H](NC(=O)CNC(=O)[C@H](CCC(=O)O)NC(=O)C(C)(C)NC(=O)[C@@H](N)Cc1c[nH]cn1)[C@@H](C)O)[C@@H](C)O)C(C)C)C(=O)N[C@@H](C)C(=O)N[C@@H](Cc1c[nH]c2ccccc12)C(=O)N[C@@H](CC(C)C)C(=O)N[C@H](C(=O)N[C@@H](CCCNC(=N)N)C(=O)NCC(=O)N[C@@H](CCCNC(=N)N)C(=O)NCC(=O)N[C@@H](CC(C)C)C(N)=O)C(C)C [SM102]
glucose-stimulated insulin secretion, SM102 vs Semaglutide, lower doses (mouse pancreatic islets; 1 and 10 nM, data not shown): differences were not apparent | glucose-stimulated insulin secretion (GSIS) (mouse pancreatic islets; islets from C57BL/6 mice, 11 mM glucose, 100 nM agonist, 30 min, no difference between agonists): potentiation of GSIS | insulin release responses, SM102 vs Semaglutide (INS-1 832/3 cells): virtually indistinguishable | improvement in blood glucose and insulin secretion vs Semaglutide 15 nmol/kg (db/db mice; SM102 1 nmol/kg, 4 weeks of treatment): comparable to Semaglutide | therapeutic effect vs Semaglutide 15 nmol/kg (db/db mice; SM102 3 nmol/kg s.c. every other day, 28 days): comparable | therapeutic effect vs Semaglutide 15 nmol/kg: weight loss, glucose, HOMA-IR (db/db mice; SM102 9 nmol/kg s.c. every other day, 28 days): superior | breakup time of tear film (diabetic DES mice; 4-week treatment): significantly prolonged | tear secretion level vs control group (diabetic DES mice; 4 weeks of treatment, phenol red cotton thread): significantly enhanced | increase in number of conjunctival goblet cells vs control mice (diabetic DES mice; SM102 1 nmol/kg, 4 weeks): approximately 1 fold | increase in number of conjunctival goblet cells vs control mice (diabetic DES mice; SM102 3 nmol/kg, 4 weeks): ~4 fold | tear secretion level vs Semaglutide or dulaglutide (diabetic DES mice; SM102 9 nmol/kg, 4 weeks): significantly higher | increase in number of conjunctival goblet cells vs control mice (diabetic DES mice; SM102 9 nmol/kg, 4 weeks): ~5 fold | phosphorylation level of ERK vs model group (diabetic DES mice; [6]): significantly lower | phosphorylation level of JNK vs model group (diabetic DES mice; [6]): significantly lower | phosphorylation level of p38 vs model group (diabetic DES mice; [6]): significantly lower | concentration of MDA vs vehicle group (diabetic DES mice; corneal homogenate, 4 weeks, ELISA): significantly decreased | level of IL-1β vs control mice (diabetic DES mice; [7]): significantly reduced | level of IL-6 vs control mice (diabetic DES mice; [7]): significantly reduced | level of TGF-β1 vs control mice (diabetic DES mice; [7]): increased | level of TNF-α vs control mice (diabetic DES mice; [7]): significantly reduced | SOD activity (diabetic DES mice; dose range 1 ~ 9 nmol/kg, 4 weeks): dose-dependent significant increase | corneal tissue damage (H&E staining) (diabetic DES mice; medium and high dose SM102, 4 weeks): significantly reversed corneal tissue damage | signaling selectivity in favor of cAMP compared to endocytosis and β-arrestin-2 recruitment (GLP-1R [2]; subtracted pEC50 estimates, SM102 vs Semaglutide, one-way ANOVA with Tukey's test): significant signaling selectivity in favor of cAMP | β-arrestin-2 recruitment response potency or Emax (GLP-1R [5]): no differences in response potency or Emax

Plasma half-life relative to SM-102 ([1]; subcutaneous injection, same dose, CD-1 mice): comparable
SMILES: CC[C@H](C)[C@H](NC(=O)[C@H](Cc1ccccc1)NC(=O)[C@H](CCC(=O)O)NC(=O)[C@H](CCCCNC(=O)COCCOCCNC(=O)COCCOCCNC(=O)CC[C@H](NC(=O)CCCCCCCCCCCCCCCCC(=O)O)C(=O)O)NC(=O)[C@H](C)NC(=O)[C@H](C)NC(=O)[C@H](CCC(N)=O)NC(=O)CNC(=O)[C@H](CCC(=O)O)NC(=O)[C@H](CC(C)C)NC(=O)[C@H](Cc1ccc(O)cc1)NC(=O)[C@H](CO)NC(=O)[C@H](CO)NC(=O)[C@@H](NC(=O)[C@H](CC(=O)O)NC(=O)[C@H](CO)NC(=O)[C@@H](NC(=O)[C@H](Cc1ccccc1)NC(=O)[C@@H](NC(=O)CNC(=O)[C@H](CCC(=O)O)NC(=O)C(C)(C)NC(=O)[C@@H](N)Cc1cnc[nH]1)[C@@H](C)O)[C@@H](C)O)C(C)C)C(=O)N[C@@H](C)C(=O)N[C@@H](Cc1c[nH]c2ccccc12)C(=O)N[C@@H](CC(C)C)C(=O)N[C@H](C(=O)N[C@@H](CCCNC(=N)N)C(=O)NCC(=O)N[C@@H](CCCNC(=N)N)C(=O)NCC(=O)O)C(C)C [Semaglutide, reference compound]
